This note sets out measurements from US8153645B2, “Treating pain using selective antagonists of persistent sodium current” (Allergan, Inc., priority 2003, dated 2012).

In test [1] the target is T1, Nav1.3 sodium channel (Homo sapiens, UniProt Q9NY46). Put plainly: High-throughput persistent sodium current assay (VIPR, FRET dyes): Na+-dependent depolarization of HEK-Nav1.3 cells. In kind it is cell-based. More on the design: expressed in transfected cells; host or cells: HEK-293 (human embryonic kidney) cells, G418-selected (HEK-Nav1.3). As to conditions: 10 μM tetracaine, HEK-Nav1.3, FIG. 2.

Test [2] concerns the target T1, Nav1.3 sodium channel.
In test [3] the test system is tactile allodynia. Put plainly: Spinal nerve ligation (Chung) model of neuropathic pain, tactile allodynia by von Frey hairs. The format is in vivo. As to conditions: rat, 10 mg/kg i.p., 30 minutes after dosing, FIG. 6. How it is done: Paw withdrawal threshold (gram force) was determined using von Frey filament stimulation and the Dixon's up-down method. Allodynic response was measured at baseline (0 min) and at 15, 30, 60 and 120 min after of 10 mg/kg IP injection of Compound 1 or vehicle control. Percent reversal of allodynia compared with non-injected rats was calculated. Six rats were used at each dose. Data were analyzed by analysis of variance and Dunnett's test reversal of allodynia was considered significant if P<0.05
Compound 1 was tested in a rodent model of neuropathic pain known to be predictive of clinical activity, see, e.g., Kim & Chung, supra, (1992). Following ligation of two spinal nerves, the animals developed sensitivity to normally non-painful stimuli such as touch. The ability of Compound 1 to reverse this sensitivity, called allodynia, was tested 30 minutes after dosing by intraperitoneal administration.
The animal model used involved the surgical ligation of the L5 (and optionally the L6) spinal nerves on one side in experimental animals. […]
Tactile allodynia was measured prior to and 30 minutes after drug administration using von Frey hairs, which are a series of fine hairs with incremental differences in stiffness. […] The applied force has been calculated to range from 0.41 to 15.1 grams. […]

[4] abbreviates: 3 μM, 200 msec pulse to 0 mV from -90 mV, FIG. 4.

Each structure is given as a SMILES string.

T1 sequence (Q9NY46 whole entry): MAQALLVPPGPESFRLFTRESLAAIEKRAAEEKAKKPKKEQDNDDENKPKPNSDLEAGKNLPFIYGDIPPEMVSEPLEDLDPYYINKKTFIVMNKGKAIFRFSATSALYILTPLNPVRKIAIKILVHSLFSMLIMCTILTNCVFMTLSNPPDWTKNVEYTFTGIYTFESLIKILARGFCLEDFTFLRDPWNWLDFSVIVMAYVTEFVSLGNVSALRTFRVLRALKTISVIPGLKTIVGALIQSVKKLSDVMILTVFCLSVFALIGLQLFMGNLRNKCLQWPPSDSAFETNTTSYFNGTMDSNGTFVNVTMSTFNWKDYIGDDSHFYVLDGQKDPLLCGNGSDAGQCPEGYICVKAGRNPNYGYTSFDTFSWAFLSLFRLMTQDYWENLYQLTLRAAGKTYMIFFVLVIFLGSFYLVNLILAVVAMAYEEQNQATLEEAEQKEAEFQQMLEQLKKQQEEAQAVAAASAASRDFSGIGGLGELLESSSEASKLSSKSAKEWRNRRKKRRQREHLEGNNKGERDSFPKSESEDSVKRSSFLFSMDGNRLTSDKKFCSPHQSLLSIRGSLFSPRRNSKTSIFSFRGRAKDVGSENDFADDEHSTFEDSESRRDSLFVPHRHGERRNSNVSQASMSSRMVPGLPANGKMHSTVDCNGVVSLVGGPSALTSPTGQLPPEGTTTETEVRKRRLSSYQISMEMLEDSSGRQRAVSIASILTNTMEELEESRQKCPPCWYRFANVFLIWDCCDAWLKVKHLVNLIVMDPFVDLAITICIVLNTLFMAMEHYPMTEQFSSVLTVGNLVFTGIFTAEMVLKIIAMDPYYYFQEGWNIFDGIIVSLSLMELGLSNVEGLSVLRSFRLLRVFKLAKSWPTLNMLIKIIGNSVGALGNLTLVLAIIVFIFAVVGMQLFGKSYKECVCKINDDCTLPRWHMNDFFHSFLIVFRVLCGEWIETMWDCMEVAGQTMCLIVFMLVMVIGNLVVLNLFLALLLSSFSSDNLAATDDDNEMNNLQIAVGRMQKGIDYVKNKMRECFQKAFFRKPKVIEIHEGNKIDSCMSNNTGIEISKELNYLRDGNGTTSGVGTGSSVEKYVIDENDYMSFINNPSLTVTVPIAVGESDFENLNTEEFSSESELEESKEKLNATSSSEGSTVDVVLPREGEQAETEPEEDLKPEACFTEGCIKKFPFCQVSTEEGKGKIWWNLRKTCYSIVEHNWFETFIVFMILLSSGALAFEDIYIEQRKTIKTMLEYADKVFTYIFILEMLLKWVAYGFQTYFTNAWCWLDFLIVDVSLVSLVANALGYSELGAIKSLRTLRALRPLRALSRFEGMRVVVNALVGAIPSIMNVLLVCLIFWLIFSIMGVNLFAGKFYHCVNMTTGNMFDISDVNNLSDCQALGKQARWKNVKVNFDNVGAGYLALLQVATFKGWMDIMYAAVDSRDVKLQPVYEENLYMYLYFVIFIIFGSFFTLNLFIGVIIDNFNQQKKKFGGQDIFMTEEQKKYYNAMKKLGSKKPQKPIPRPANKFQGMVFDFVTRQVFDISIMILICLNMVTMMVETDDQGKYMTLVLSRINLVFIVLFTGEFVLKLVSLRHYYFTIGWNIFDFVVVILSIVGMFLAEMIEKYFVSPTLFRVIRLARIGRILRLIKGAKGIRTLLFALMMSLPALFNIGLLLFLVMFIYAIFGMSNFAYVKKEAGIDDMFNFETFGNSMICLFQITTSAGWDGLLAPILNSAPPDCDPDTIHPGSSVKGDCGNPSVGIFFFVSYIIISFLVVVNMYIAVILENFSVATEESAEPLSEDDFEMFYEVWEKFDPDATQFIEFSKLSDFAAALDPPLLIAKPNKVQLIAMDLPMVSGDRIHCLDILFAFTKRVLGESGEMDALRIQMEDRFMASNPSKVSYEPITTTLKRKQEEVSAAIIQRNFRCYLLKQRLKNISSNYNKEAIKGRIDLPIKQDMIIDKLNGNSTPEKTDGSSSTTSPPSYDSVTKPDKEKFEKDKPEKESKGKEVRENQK

As to `CCCCNc1ccc(C(=O)OCCN(C)C)cc1` [Tetracaine, tetracaine], the “Inhibition of Na+-dependent change in Rf/Ri (depolarization)” value in test [1] is “inhibited”.
As for `O=C(NCCCCc1ccccc1)c1cccs1` [Compound 1, thiophene-2-carboxylic acid (4-phenyl-butyl)-amide], in test [2] (setting [4]), the “Block of persistent current” value came to 99% and the “Reduction of transient current” value came out at 16%. Further, in test [2] (Hill equation fit, FIG. 5), the “Hillslope, persistent current (Ip)” value was determined as 0.733 and the “Hillslope, transient Na+ current (It)” value worked out at 0.354. The “Reduction in allodynia with respect to a vehicle control” value in test [3] is given as 80%.
